Source: patent publication US7214669B2, “Tetracycline derivatives and methods of use thereof” (Tetragenex Pharmaceuticals, Inc., priority 2001, dated 2007)
Values joined by “and” are separate entries in the source; they are usually repeats but may differ in a detail not shown here. Equal entries are not always repeated. Structures can show the parent of a compound that is named as a salt.

What was measured:
[1] = target: T1, Human recombinant MMP1 (Homo sapiens, UniProt P03956); test: MMP1 (Collagenase-1) inhibition, 14C collagen release; assay type: biochemical; conditions: 35° C., 5 hours; read-out: MMP-1 inhibitory activity, IC50
T1 sequence (P03956 100-469): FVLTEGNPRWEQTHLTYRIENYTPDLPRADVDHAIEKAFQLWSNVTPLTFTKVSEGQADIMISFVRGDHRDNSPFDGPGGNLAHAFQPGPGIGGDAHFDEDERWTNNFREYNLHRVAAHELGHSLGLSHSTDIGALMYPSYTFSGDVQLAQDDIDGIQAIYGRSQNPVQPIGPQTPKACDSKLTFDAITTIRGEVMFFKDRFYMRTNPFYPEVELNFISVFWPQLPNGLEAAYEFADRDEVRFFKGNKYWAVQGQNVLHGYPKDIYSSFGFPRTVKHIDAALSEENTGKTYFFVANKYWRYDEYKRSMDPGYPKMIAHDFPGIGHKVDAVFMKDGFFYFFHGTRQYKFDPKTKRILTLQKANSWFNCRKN
Protocol: Protocol for Measuring MMP1 (Collagenase-1) Inhibition by Tetracycline Derivatives
MMP1 activity was determined by the release of soluble ^14C labelled collagen fragments from ^14C acetylated rat skin type I collagen (Methods in Enzymology 80 711, 1981).
• 100 μg ^14C labelled rat skin type I collagen (5–6000 dpm) • 50 mM Tris HCl pH 7.9 • 15 mM CaCl2 0.02% azide • Human recombinant MMP1 3–4 nM • ±Tetracycline (up to 1 mM) in a total volume of 300 μl.
Incubations were at 35° C. for 5 hours. Uncleaved collagen fibrils (which form within the first 10 minutes) were removed by centrifugation at 10,000 g, 4° C., 10 minutes. 200 μl supernatant were counted in Packard Opti Phase Supermix scintillation fluid using a scintillation counter. Only data derived from within the linear part of the assay (10–70% lysis of the collagen) were utilized. Based on percentage inhibition of the activity of MMP1 alone by a range of concentrations of each sample, the IC50 value for each tetracycline was calculated by linear regression analysis.

[2] = target: T2, MMP2 (Gelatinase A) (Homo sapiens, UniProt P08253); test: MMP2 (Gelatinase A) inhibition, 14C gelatin release; assay type: biochemical; conditions: 37° C., 16 hours; read-out: MMP-2 inhibitory activity, IC50
T2 sequence (P08253 110-660): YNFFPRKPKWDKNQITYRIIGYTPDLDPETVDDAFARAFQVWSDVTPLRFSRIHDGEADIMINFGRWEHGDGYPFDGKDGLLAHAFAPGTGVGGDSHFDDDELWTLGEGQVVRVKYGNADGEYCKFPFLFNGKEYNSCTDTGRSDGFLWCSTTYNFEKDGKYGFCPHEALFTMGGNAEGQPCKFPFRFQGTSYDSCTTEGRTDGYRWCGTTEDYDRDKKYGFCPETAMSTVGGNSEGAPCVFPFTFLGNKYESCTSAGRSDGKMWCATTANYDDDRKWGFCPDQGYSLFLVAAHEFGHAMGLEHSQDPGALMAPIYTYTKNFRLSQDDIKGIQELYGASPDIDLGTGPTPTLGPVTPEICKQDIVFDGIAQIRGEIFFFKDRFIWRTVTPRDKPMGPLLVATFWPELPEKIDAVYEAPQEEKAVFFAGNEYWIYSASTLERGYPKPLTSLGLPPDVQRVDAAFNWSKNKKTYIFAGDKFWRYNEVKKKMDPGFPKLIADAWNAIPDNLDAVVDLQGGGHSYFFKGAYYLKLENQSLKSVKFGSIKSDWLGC
Protocol: Protocol for Measuring MMP2 (Gelatinase A) Inhibition
MMP2 activity was determined by the release of trichloracetic acid, TCA, soluble fragments from ^14C acetylated rat skin type I gelatin (Methods in Enzymology 248, 470, 1995. Biochem. J. 195, 1981)
• 100 μg ^14C labelled gelatin (type I collagen denatured 60° C. 20 min) • 50 mM Tris HCl pH 7.9 • 15 mM CaCl2, 0.02% azide • Human recombinant MMP1, 0.1–0.5 nM • ±Tetracycline (up to 1 MM) in a total volume of 250 μl.
Incubations were set at 37° C. for 16 hours. The reaction was stopped by cooling the incubations and addition of 50 μl cold 90% (w/v) trichloracetic acid with careful mixing. TCA precipitation was allowed to proceed for 15 minutes at 4° C. prior to cetrifugation at 10,000 g for 10 minutes at 4° C. 200 μl of the TCA supernatant was taken for the determination of radioactive content by scintillation counting (Packard Opti Phase Supermix scintillation fluid). Only data derived from within the linear part of the assay (10–70% lysis) were utilized. The percentage inhibition of MMP2 by each tetracycline concentration was plotted to derive the IC50 value, using linear regression analysis.

[3] = target: Human recombinant MMP3 (Homo sapiens, UniProt P08254); test: MMP3 (Stromelysin 1) inhibition, 14C casein release; assay type: biochemical; conditions: 37° C., 16 hours; read-out: MMP-3 inhibitory activity, IC50
Protocol: Protocol for Measuring MMP3 (Stromelysin 1) Inhibition
• 100 μg ^14C casein (7000 dpm) • 50 mM Tris HCl, pH 7.9 • 15 mM CaCl2, 0.02% azide • Human recombinant MMP3, 0.25–1.0 nM • ±tetracycline (up to 1 mM) in a total volume of 250 μl.
Incubations were at 37° C. for 16 hours. The reaction was stopped by the addition of 500 μl cold 18% TCA and standing on ice for 15 minutes. TCA precipitates were removed by centrifugation at 10,000 g for 10 minutes at 4° C. and 200 μl supernatant was taken for scintillation counting. Only data derived from within the linear part of the assay (10–60% lysis) were utilized. The percentage inhibition of MMP3 by each concentration of the candidate tetracycline was plotted to derive the IC50 value, using linear regression analysis.

[4] = target: Human recombinant MMP9 (Homo sapiens, UniProt P14780); test: MMP9 (Gelatinase B) inhibition, 14C gelatin release; assay type: biochemical; conditions: 37° C., 16 hours; read-out: MMP-9 inhibitory activity, IC50
Protocol: Protocol for Measuring MMP9 (Gelatinase B) Inhibition
MMP9 activity was determined by the release of trichloracetic acid, TCA soluble fragments from ^14C acetylated rat skin type I (Methods in Enzymology 248, 470, 1995. Biochem. J. 195, 1981)
• 100 μg ^14C labelled gelatin (collagen denatured 60° C. 20 min) • 50 mM Tris HCl pH 7.9 • 15 mM CaCl2, 0.02% azide • Human recombinant MMP9, 1.2–2 nM • ±Tetracycline (up to 1 mM) in a total volume of 250 μl.
Incubations were at 37° C. for 16 hours. The incubations were stopped by cooling the incubations and addition of 50 μl cold 90% (w/v) trichloracetic acid with careful mixing. TCA precipitation was allowed to proceed for 15 minutes at 4° C. prior to centrifugation at 10,000 g for 10 minutes at 4° C. 200 μl of the TCA supernatant was taken for the determination of radioactive content by scintillation counting (Packard Opti Phase Supermix scintillation fluid). Only data derived from within the linear part of the assay (10–70% lysis) were utilized. The percentage inhibition of MMP9 by each tetracycline concentration were plotted to derive the IC50 value.

[5] = target: Human recombinant MMP14 (Homo sapiens, UniProt P50281); test: MMP14 (MTI-MMP) inhibition, 14C collagen release; assay type: biochemical; conditions: 35° C., 15 hours; read-out: MMP-14 inhibitory activity, IC50
[6] = system: C8161 human melanoma cells; test: Membrane Invasion Culture System (MICS) chemo-invasion assay; assay type: cell-based; conditions: 24 hours, + = increased invasiveness
Text: (§1) Another objective was to analyze the effects of specific, tetracycline derived compounds on the in-vitro chemo-invasive potential of: • C8161 human melanoma cells • MDA-MB-231 human breast cancer cells • PC3 human prostate cancer cells • RPM18226 human myeloma cancer cells • Ark human myeloma cancer cells • Arp-1 human myeloma cancer cells
(§2) The Membrane Invasion Culture System (MICS) in vitro chemo-invasion assay was chosen to measure changes in the invasive potential of specific human cancer cells in response to tetracycline derived compounds. Stock solutions of each compound were hydrated in water containing 2% DMSO and pH 10.0. Upon solubilization, HCl was added to the solution to establish a pH of 7.5–8.0. This solution was then wrapped in foil and kept at 4° C. during the 24 hours of assay. Fresh compound was prepared for each assay. The in vitro chemoinvasion analyses for tumor cell invasiveness are performed using the Membrane Invasion Culture System (MICS) as previously described.
(§3) The MICS system is a thermally treated plastic manifold system consisting of two matched sets of plates containing fourteen wells, 13 mm in diameter. Interposed between these plates was a polycarbonate filter containing 10 μm pores and coated with a defined matrix composed of human laminin/collagen IV/gelatin that formed a 35 μm thick barrier between the top and bottom sections of the wells in MICS. Prior to placing this barrier in place, the lower wells were filled with serum-free RPMI culture medium made 50% in conditioned medium obtained from 2-day-old cultures of human fibroblasts which had been cleared of cells and cellular debris by either centrifugation, or filtering through a 0.45 μm sterile filter. The barrier was then placed on the lower wells and fresh serum-free medium added to the upper wells after assembly of the system. Fifty thousand tumor cells were then added to the wells either in the presence of the compound, or the DMSO vehicle (the controls). Of the 12 assay wells on each manifold, 3 randomized wells acted as controls, 3 wells received 1 μg/ml of compound, 3 received 10 μg/ml and 3 received 25 μg/ml. After 24 hours, cells and media were removed from the lower wells and replaced by phosphate buffered saline plus 2 mM EDTA. This solution was used to remove all cells from the lower well, and this wash was added to the recovered cells plus medium from the same well. These samples were then collected onto a polylysine containing polycarbonate membrane containing 3 μm pores using a Dot-Blot manifold system. These collection filters were then fixed in methanol, and stained using Wright's stain (Leukostat staining kit) in situ. The filters were then mounted on microscope slides with microscope immersion oil (which reduced the light refraction from the pores) and 5 microscopic fields were counted to calculate the number of cells which invaded through the membrane over the 24 hour period. These numbers were then statistically analyzed as discussed below.

[7] = system: MDA-MB-231 human breast cancer cells; test: as above; assay type: cell-based; conditions: 24 hours, + = increased invasiveness
Text: as §1, §2, §3

[8] = system: PC-3 ML human prostate cancer cells; test: as above; assay type: cell-based; conditions: 24 hours, + = increased invasiveness
Text: as §1, §2, §3

[9] = system: RPMI-8226 human myeloma cancer cells; test: as above; assay type: cell-based; conditions: 24 hours, + = increased invasiveness
Text: as §1, §2, §3

Chain of Human recombinant MMP9 (P14780 94-707): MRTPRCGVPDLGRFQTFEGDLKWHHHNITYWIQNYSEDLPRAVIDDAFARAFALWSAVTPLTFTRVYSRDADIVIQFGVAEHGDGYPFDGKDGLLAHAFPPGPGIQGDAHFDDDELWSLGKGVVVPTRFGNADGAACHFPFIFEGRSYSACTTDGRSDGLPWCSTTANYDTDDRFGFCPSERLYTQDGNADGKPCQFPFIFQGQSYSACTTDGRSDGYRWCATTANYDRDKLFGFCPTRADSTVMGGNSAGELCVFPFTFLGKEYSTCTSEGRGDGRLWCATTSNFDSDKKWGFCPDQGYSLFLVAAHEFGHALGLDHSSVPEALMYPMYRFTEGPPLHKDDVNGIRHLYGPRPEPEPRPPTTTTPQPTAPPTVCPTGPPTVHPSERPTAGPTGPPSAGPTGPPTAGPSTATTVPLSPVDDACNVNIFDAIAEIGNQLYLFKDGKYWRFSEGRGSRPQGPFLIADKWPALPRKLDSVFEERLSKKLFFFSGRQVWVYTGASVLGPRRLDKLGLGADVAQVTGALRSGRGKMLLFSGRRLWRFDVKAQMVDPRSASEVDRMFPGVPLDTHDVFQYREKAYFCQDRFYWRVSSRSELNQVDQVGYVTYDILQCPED
Chain of Human recombinant MMP3 (P08254 100-477): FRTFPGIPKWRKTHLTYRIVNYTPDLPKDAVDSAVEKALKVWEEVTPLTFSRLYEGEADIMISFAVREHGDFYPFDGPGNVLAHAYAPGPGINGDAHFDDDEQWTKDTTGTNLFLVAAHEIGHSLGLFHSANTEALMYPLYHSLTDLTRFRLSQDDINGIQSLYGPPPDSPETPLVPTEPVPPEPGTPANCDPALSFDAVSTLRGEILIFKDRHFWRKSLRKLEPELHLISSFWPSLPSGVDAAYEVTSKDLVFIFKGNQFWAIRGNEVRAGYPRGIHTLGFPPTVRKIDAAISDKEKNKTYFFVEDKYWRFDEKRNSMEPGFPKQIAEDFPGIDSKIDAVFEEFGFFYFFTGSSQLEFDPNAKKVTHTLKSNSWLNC

Row | Compound | IC50 [1] | IC50 [2] | IC50 [3] | IC50 [4] | IC50 [5] | percent inhibition, C8161 (Melanoma) ([6]; 1 ug/mL) | percent inhibition, C8161 (Melanoma) ([6]; 10 ug/mL) | percent inhibition, C8161 (Melanoma) ([6]; 25 ug/mL) | percent inhibition, MDA-MB-231 (Breast) ([7]; 1 ug/mL) | percent inhibition, MDA-MB-231 (Breast) ([7]; 10 ug/mL) | percent inhibition, MDA-MB-231 (Breast) ([7]; 25 ug/mL) | percent inhibition, PC-3 ML (Prostrate) ([8]; 1 ug/mL) | percent inhibition, PC-3 ML (Prostrate) ([8]; 10 ug/mL) | percent inhibition, PC-3 ML (Prostrate) ([8]; 25 ug/mL) | percent inhibition, RPMI-8226 (Multiple Myeloma) ([9]; 1 ug/mL) | percent inhibition, RPMI-8226 (Multiple Myeloma) ([9]; 10 ug/mL) | percent inhibition, RPMI-8226 (Multiple Myeloma) ([9]; 25 ug/mL) | other results
1 | 7-Cyclobutylmethylamino-6-deoxy-5-hydroxytetracycline H2SO4 [Compound 33] | 295 µM | 263 µM | 205 µM | 142 µM | 94 µM | – | – | – | – | – | – | – | – | – | – | – | – | –
2 | CC1c2c(N)cc([N+](=O)[O-])c(O)c2C(=O)C2=C(O)C3(O)C(=O)C(C(N)=O)=C(O)C(N(C)C)C3C(O)C21 (stereo not drawn) [Compound 14, 7-Amino-6-deoxy-5-hydroxy-9-nitrotetracycline H2SO4] | 279 µM | – | > 1000 µM | – | 386 µM | – | – | – | – | – | – | – | – | – | – | – | – | –
3 | CC1c2c([N+](=O)[O-])cc(C(C)(C)C)c(O)c2C(=O)C2=C(O)C3(O)C(=O)C(C(N)=O)=C(O)CC3C(O)C21 (stereo not drawn) [Compound 40, 7-Nitro-9-tertbutyl-4-dedimethylamino-6-deoxy-5-hydroxy-tetracycline H2SO4] | 560 µM | 362 µM | 91 µM | – | 29 µM | +1% | +5% | +4% | 9% | 15% | 20^B percent | +1% | +7% | +4% | 16% | 11% | 9% | –
4 | CC(=O)Nc1cc(N=[N+]=[N-])c(O)c2c1C(C)C1C(=C(O)C3(O)C(=O)C(C(N)=O)=C(O)C(N(C)C)C3C1O)C2=O (stereo not drawn) [Compound 42, 7-Acetylamino-9-azido-6-deoxy-5-hydroxy-tetracycline] | – | 606 µM | 1560 µM | 405 µM | 428 µM | – | – | – | – | – | – | – | – | – | – | – | – | –
5 | CC1c2c([N+]#N)cc(C(C)(C)C)c(O)c2C(=O)C2=C(O)C3(O)C(=O)C(C(N)=O)=C(O)C(N(C)C)C3C(O)C21 (stereo not drawn) [Compound 43, 9-tertbutyl-6-deoxy-5-hydroxytetracycline-7-diazonium H2SO4] | 600 µM | 2480 µM | 174 µM | 319 µM | – | – | – | – | – | – | – | – | – | – | – | – | – | –
6 | CC1c2c(N)cc(C(C)(C)C)c(O)c2C(=O)C2=C(O)C3(O)C(=O)C(C(N)=O)=C(O)C(N(C)C)C3C(O)C21 (stereo not drawn) [Compound 44, 7-Amino-9-tertbutyl-6-deoxy-5-hydroxytetracycline H2SO4] | 1440 µM | 1470 µM | 224 µM | 591 µM | – | – | – | – | – | – | – | – | – | – | – | – | – | –
7 | CC1c2c(N=[N+]=[N-])cc(C(C)(C)C)c(O)c2C(=O)C2=C(O)C3(O)C(=O)C(C(N)=O)=C(O)C(N(C)C)C3C(O)C21 (stereo not drawn) [Compound 45, 7-Azido-9-tertbutyl-6-deoxy-5-hydroxytetracycline H2SO4] | 384 µM | 2450 µM | 194 µM | 6630 µM | – | – | – | – | – | – | – | – | – | – | – | – | – | –
8 | CC1c2ccc(-c3ccc(F)cc3)c(O)c2C(=O)C2=C(O)C3(O)C(=O)C(C(N)=O)=C(O)C(N(C)C)C3C(O)C21 (stereo not drawn) [Compound 51, 9-(4-fluorophenyl)-6-deoxy-5-hydroxytetracycline] | – | – | – | – | – | +9% | +31^B percent | +122^B percent | +15^B percent | +18% | 25^B percent | +4% | +13% | 4% | 14% | +26^B percent | +2% | –
9 | CN(C)C1C(O)=C(C(N)=O)C(=O)C2(O)C(O)=C3C(=O)c4c(O)ccc(Cl)c4C(C)(O)C3CC12 (stereo not drawn) [Compound 52, 4-Epi-7-Chlorotetracycline hydrochloride] | – | – | – | – | – | 5% | 15% | 30% | 5% | 12% | 52^B percent | – | – | – | – | – | – | percent inhibition, PC-3 ML (Prostrate) ([8]; 1 ug/mL, hydrochloride): 52^B percent and 31^B percent; percent inhibition, PC-3 ML (Prostrate) ([8]; 10 ug/mL, hydrochloride): 68^B percent and 48^B percent; percent inhibition, PC-3 ML (Prostrate) ([8]; 25 ug/mL, hydrochloride): 70^B percent and 63^B percent; percent inhibition, RPMI-8226 (Multiple Myeloma) ([9]; 10 ug/mL, hydrochloride): 26^B percent and 33^B percent; percent inhibition, RPMI-8226 (Multiple Myeloma) ([9]; 25 ug/mL, hydrochloride): 68^B percent and 46^B percent
10 | CN(C)[C@@H]1C(=O)C(C(N)=O)=C(O)[C@@]2(O)C(=O)C3=C(O)c4c(O)cccc4C[C@H]3C[C@@H]12.Cl [Compound 53, 6-Demethyl-6-deoxytetracycline HCl] | – | – | – | – | – | +40^B percent | +158^B percent | 83^B percent | 9% | 49^B percent | 83^B percent | 29^B percent | 21% | 45^B percent | +95^B percent | 18% | 84^B percent | –
